Measured values from US20250282818A1, “SYRBACTIN MACROLACTAMS AND UNNATURAL ANALOGS AS PROTEASOME INHIBITORS FOR THE TREATMENT OF MULTIPLE MYELOMA AND CHEMOENZYMATIC SYNTHESIS THEREOF” (UNIVERSITY OF FLORIDA RESEARCH FOUNDATION,INCORPORATED, priority 2022, published 2025).
Entries after “also recorded” stand apart in the source; their conditions may differ.

Columns and labels:
[1] = system: human MM (RPMI8226, U266, H929) and MCL (JeKo-1, HBL2, Mino) cell lines; experiment: MM and MCL cytotoxicity EC50 measurements, cell line panel; type: cell-based; settings: 3 MM and 3 MCL cell lines, 48 hours
Experimental: (§1) Finally, we sought to compare the new lead analog (50) against the clinical drug bortezomib. It has been shown that in addition to MM, mantle cell lymphoma (MCL) is also sensitive to proteasome inhibition. Indeed, bortezomib itself is FDA-approved for the treatment of MCL.^23 Therefore, we compared 50 and bortezomib in 3 different cell lines of both MM and MCL (FIG. 6E, FIG. 7).
(§2) Cells were seeded in a 96-well plate (20,000 cells/well) in cell culture media supplemented with indicated compounds (1,000× stock in DMSO) or DMSO and cultured for 48 hours. Toxicity was determined using the WST-1 assay (Roche) according to the protocol of the manufacturer. (n=3)

[2] = system: upregulated protein expression; experiment: Global proteomics experiments; type: cell-based, human
[3] = target: T1, proteasome subunit β5 (Homo sapiens, UniProt P28074); experiment: Proteasome inhibition IC50 measurements in RPMI 8226 cells, substrate Suc-LLVY-AMC (β5); type: cell-based
T1 construct: Cells were then collected and lysed; endogenous in cells; host or cells: RPMI 8226
Text: Our preliminary series of analogs (FIG. 3), including the natural product glidobactin A (2), were synthesized by largely the same route (FIG. 2).^13 Desoxycepafungin (38) was synthesized from Boc-Lys(Boc)-OH to assess the role of the macrocycle hydroxylation in 1 towards proteasome inhibition. The saturated cepafungin analog 39 was designed to address the possible role of rigidity in the tail fragment induced by the diene seen in many natural cepafungins and glidobactins. An analog bearing unsaturation at its macrocyclic lysine was envisioned to provide a head-to-head comparison between the cepafungin and syringolin A (4) macrocyclic core. […] Proteasome subunit β5 IC50 values were determined in situ in RPMI 8226 cells (FIG. 3). In close agreement with prior measurement of β5 IC50 for natural 1 and 2 in purified yeast proteasome,^8 in our hands the additional branching methyl in 1 indeed leads to ca. 5-fold improved IC50 compared to 2 in RPMI 8226 cells. […] Likewise, saturation of the fatty acid fragment in 39 causes ca. 14-fold decrease in β5 inhibition. This preliminary series of analogs highlighted that the macrocyclic hydroxylation, fatty acid unsaturation, and terminal lipid functionality are critical for potent proteasome inhibitory activity.
(§3) Cellular assays were performed with human multiple myeloma cell line RPMI 8226. First, relative inhibition of proteasome subunits β5 and β2 for all analogs and the natural product was measured at 30 nM compound concentration. Following incubation of the analogs in cell culture for 6 hours, cells were lysed and fluorogenic subunit-specific peptide substrates Suc-LLVY-AMC (β5) or Ac-RLR-AMC (β2) were incubated with the lysates, and fluorescence readings provided relative proteasome activity levels with respect to DMSO (FIG. 6A). Next, cytotoxicity screening was performed at 30 nM and 100 nM concentrations for better coverage of dynamic range (FIG. 6B). […] Therefore, the improved cytotoxicity of phenyl cepafungin 50 likely results from a more pronounced loss of β5 function in RPMI 8226 cells. This drastic increase in proteasome inhibition may be due to pi-stacking of the lipid tail phenyl ring with the β6 subunit residues Tyr106 and/or Tyr5. The β2 subunit-bound natural product has residues Tyr102 and Phe103 on the adjacent β3 subunit oriented further away from the terminal lipid methyl groups, and presumably would not facilitate pi-stacking to the extent possible at the adjacent β6 subunit (see FIG. 4, FIG. 9). […]
(§4) RPMI 8226 cells were seeded in a 6-well plate (1,000,000 cells/well) in cell culture media supplemented with indicated compounds (1,000× stock in DMSO) or DMSO and cultured for 6 hours. […] The plates were incubated at 37° C. for one hour and fluorescence was read at A360ex/A460em. […]

[4] = target: T2, 20S proteasome (Homo sapiens, UniProt P28074+Q99436); experiment: In-gel competitive profiling and in situ competitive LC-MS/MS based chemoproteomics; type: cell-based; settings: human MM cells, alkyne-tagged probe analog
T2 construct: endogenous in cells
T2 sequence (P28074 60-263): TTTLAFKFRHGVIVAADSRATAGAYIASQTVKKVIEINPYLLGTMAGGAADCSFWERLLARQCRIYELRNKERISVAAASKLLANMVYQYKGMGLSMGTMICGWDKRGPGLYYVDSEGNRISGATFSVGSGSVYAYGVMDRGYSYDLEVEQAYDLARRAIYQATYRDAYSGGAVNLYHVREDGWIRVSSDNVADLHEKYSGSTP
T2 sequence (Q99436 44-277): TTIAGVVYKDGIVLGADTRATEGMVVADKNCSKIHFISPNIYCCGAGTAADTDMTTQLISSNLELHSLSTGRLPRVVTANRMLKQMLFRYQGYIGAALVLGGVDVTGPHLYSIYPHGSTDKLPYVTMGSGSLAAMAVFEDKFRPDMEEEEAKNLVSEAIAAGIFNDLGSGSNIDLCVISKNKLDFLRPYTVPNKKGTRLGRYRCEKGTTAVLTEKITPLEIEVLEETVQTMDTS
Text: Prior to our work, a major knowledge gap in the bioactivity of cepafungin was its engagement of the proteasome in human MM cells and selectivity in targeting the proteasome over a multitude of other proteases. To address this, an alkyne-tagged probe analog was synthesized by our chemoenzymatic route and used for classical chemoproteomics studies.

[5] = target: β5 subunit of purified yeast proteasome (Saccharomyces cerevisiae, UniProt P23724+P30656); settings: literature ref. 8; cited from earlier work
[6] = system: β2 and β5 subunits; settings: introduction, no test specified; cited from earlier work
[7] = system: proteasome subunit β2; experiment: Proteasome inhibition IC50 measurements in RPMI 8226 cells, substrate Ac-RLR-AMC (β2); type: cell-based, human; settings: 6 hours
Experimental: as §3, with “Tyr5.” for “Tyr5. The β2 subunit-bound natural product has residues Tyr102 and Phe103 on the adjacent β3 subunit oriented further away from the terminal lipid methyl groups, and presumably would not facilitate pi-stacking to the extent possible at the adjacent β6 subunit (see FIG. 4, FIG. 9).”
as §4

[8] = system: RPMI 8226 cells; experiment: RPMI 8226 cytotoxicity EC50 measurements (WST-1); type: cell-based, human
Experimental: (§5) RPMI 8226 cells were seeded in a 96-well plate (20,000 cells/well) in cell culture media supplemented with indicated compounds (1,000× stock in DMSO) or DMSO and cultured for 48 hours. Toxicity was determined using the WST-1 assay (Roche) according to the protocol of the manufacturer. (n=3)
as §5, with “Cytotoxicity of phenyl cepafungin (50) and hybrid analog (S39) in RPMI 8226 RPMI” for “RPMI”

[9] = system: RPMI 8226 cells; experiment: RPMI8226 cytotoxicity screening (WST-1); type: cell-based, human; settings: 30 nM and 100 nM, cytotoxicities track with proteasome inhibition at 30 nM
Experimental: Cellular assays were performed with human multiple myeloma cell line RPMI 8226. First, relative inhibition of proteasome subunits β5 and β2 for all analogs and the natural product was measured at 30 nM compound concentration. Following incubation of the analogs in cell culture for 6 hours, cells were lysed and fluorogenic subunit-specific peptide substrates Suc-LLVY-AMC (β5) or Ac-RLR-AMC (β2) were incubated with the lysates, and fluorescence readings provided relative proteasome activity levels with respect to DMSO (FIG. 6A). Next, cytotoxicity screening was performed at 30 nM and 100 nM concentrations for better coverage of dynamic range (FIG. 6B). […] Therefore, the improved cytotoxicity of phenyl cepafungin 50 likely results from a more pronounced loss of β5 function in RPMI 8226 cells. This drastic increase in proteasome inhibition may be due to pi-stacking of the lipid tail phenyl ring with the β6 subunit residues Tyr106 and/or Tyr5. The β2 subunit-bound natural product has residues Tyr102 and Phe103 on the adjacent β3 subunit oriented further away from the terminal lipid methyl groups, and presumably would not facilitate pi-stacking to the extent possible at the adjacent β6 subunit (see FIG. 4, FIG. 9). […] These combined modifications were made in hopes that the effects of both substitutions would be additive.
[…] Toxicity was determined using the WST-1 assay (Roche) according to the protocol of the manufacturer. (n=3)

[10] = system: U266; experiment: MM and MCL cytotoxicity EC50 measurements, U266; type: cell-based; settings: Homo sapiens, U-266; U266, 48 hours, WST-1
Experimental: as §1, §2

Compound	cytotoxicity compared with bortezomib, in words [1]	overlap in upregulated protein expression between 1 and bortezomib [2]	fold improved β5 IC50 of 1 compared to 2 ([3]; in situ in RPMI 8226 cells)	fold improved β5 inhibition of 1 compared to desoxy-cepafungin analog 38 ([3]; in situ in RPMI 8226 cells)	selectivity of proteasome engagement, in words [4]	selectivity of proteasome engagement, in words ([4]; listed as cepafungin)	fold improvement of β5-subunit inhibition compared to glidobactin A (2) [5]	proteasome inhibitory activity, in words [6]	fold lower β5 IC50 than 1 / fold greater β5 inhibitory activity ([3]; RPMI 8226 cells, 6 hours) [fold]	β2 subunit IC50 compared with 1, in words [7]	EC50 ([8]; Homo sapiens, RPMI 8226, 48 hours, WST-1) [nM]	fold greater cytotoxicity than parent cepafungin I 1 ([8]; RPMI 8226, EC50 comparison)	potency compared with parent natural product 1 in screening (FIG. 6A, 6B) [9]	EC50 [10] [nM]
CC(C)C[C@H](NC(=O)[C@H](Cc1ccccc1)NC(=O)c1cnccn1)B(O)O [bortezomib, reference compound]	low-nanomolar cytotoxicity	high degree of overlap in upregulated protein expression												
CC(C)CCCCC/C=C/C=C\C(=O)N[C@H](C(=O)N[C@H]1C[C@H](O)CCNC(=O)/C=C\[C@H](C)NC1=O)[C@@H](C)O [compound 1, cepafungin I]		high degree of overlap in upregulated protein expression	ca. 5 fold	ca. 11 fold	exceptional selectivity	exceptional selectivity towards several proteasome subunits	ca. 5 fold	most potent proteasome inhibitor among the syrbactins; also recorded: low nanomolar inhibitory activity						
C[C@H]1/C=C/C(=O)NCC[C@H](O)C[C@H](NC(=O)[C@@H](NC(=O)/C=C/C=C/CCCCCc2ccccc2)[C@@H](C)O)C(=O)N1 [compound 50, (2E,4E)-N-((2S,3R)-3-hydroxy-1-(((5S,8S,10S,E)-10-hydroxy-5-methyl-2,7-dioxo-1,6-diazacyclododec-3-en-8-yl)amino)-1-oxobutan-2-yl)-10-phenyldeca-2,4-dienamide]	similarly low-nanomolar cytotoxicity in all cell lines as bortezomib except for U266								7	roughly similar IC50	3	4-5 fold	more potent than the parent natural product 1; also recorded: most potent	~20
